EC50 and melting point data for 28 molecules are collected here from patent publication US8563715B2, “Pyrimidine derivative having cell protecting effect and uses thereof” (Zenyaku Kogyo Kabushikikaisha, priority 2008, dated 2013).

The test system of data set [1] is astrocyte/neuron co-culture. The data set can be described thus: Brain cell damage induced by hydrogen peroxide treatment (LDH assay). The data set is classed as cell-based. The settings on record: Rattus norvegicus, hydrogen peroxide (250 μM), 24 hours, read-out: 50% inhibition concentration against cell damage in entire co-culture system (EC50 value). On the procedure:
The brain was removed from 1 to 2 day old Wistar rats (Charles River) or Sprague-Dawley (IGS) rats (Charles River), and the cerebral cortex including the hippocampus was excised under ice cooling. After this cerebral cortex was minced, it was digested with papain solution (9 U/ml) containing DNase I (30 U/ml) at 37 degrees Celsius for 15 minutes, dispersing the cells. After further carrying out mechanical dispersing by pipetting, it was passed through a cell strainer with a pore size of 70 μm, and a cell suspension was obtained. Cells derived from 1.4 cerebra were seeded on 150 mm tissue culture dish (Iwaki Glass), and primary culture was carried out at 37 degrees Celsius and 5% CO2 using a D-MEM medium (Invitrogen) containing 10% heat-inactivated fetal calf serum (JRH). One day after the start of the culture, the nonadherent cells were removed, and the primary cultured astrocytes were obtained by continuing the culture for 4 to 5 further days. The primary cultured astrocytes were dispersed by trypsin treating, suspended in cryopreservation solution, and cryopreserved.
After thawing the cryopreserved primary cultured astrocytes, they were seeded on tissue culture plates (Iwaki Glass), and a confluent astrocyte layer was produced by a further 7 days of secondary culture using a D-MEM medium containing 10% heat-inactivated fetal calf serum. Neurons to be used in the co-culture with the astrocyte layer were obtained from fetal rat cerebrum. Briefly, brains were removed from Wistar rats (Charles River) or Sprague-Dawley (IGS) rats (Charles River) of embryonic age 18.5 days, and the cerebral cortex including the hippocampus was excised under ice cooling. After this cerebral cortex was minced, it was digested in papain solution (9 U/ml) containing DNase I (30 U/ml) at 37 degrees Celsius for 15 minutes, dispersing the cells. After further carrying out mechanical dispersing by pipetting, it was passed through a cell strainer with a pore size of 70 μm, and a cell suspension was obtained. This cell suspension was plated at a density of 1.3×10^5 cells/cm^2 on the astrocyte layer, and a co-culture was carried out using D-MEM/F-12 medium (Invitrogen) containing 10% heat-inactivated fetal calf serum and 5% horse serum (Invitrogen). 2 days after the start of the co-culture, cells were treated for 24 hours with 10 μM cytosine arabinoside in order to suppress the excessive cell proliferation of microglia and the like. 8 to 9 days after the start of the co-culture, cells were used for the test. Additionally, using one portion of the cells, immunofluorescent staining and nuclear staining was carried out with astrocyte recognizing antibodies (anti-GFAP) and neuron recognizing antibodies (anti-MAP2), in order to confirm that the present culture system is a co-culture system of astrocytes and neurons.
An astrocyte/neuron co-culture cultured on a 96 well plate was used in the test. A predetermined concentration of the test substance and hydrogen peroxide (250 μM) was simultaneously added to the cell culture in each well with continuing cultivation, and analysis was done 24 hours after this treatment. Using an LDH Cytotoxicity Detection Kit (Takara Bio), analysis was carried out in accordance with the included instruction manual, and the damage to the entire co-culture system by the hydrogen peroxide treatment and the protective effect (EC 50 value) of the test substance was evaluated. Further, the cell bodies and the neuronal processes of the neurons were observed by microscope, and the neuroprotective effect was evaluated.

Usually melting point stands for the temperature of the solid-liquid transition. Consider `CN(C)c1cc(N2CCOCC2)nc(N2CCN(c3ccccc3)CC2)n1` [Compound 2, 4-dimethylamino-6-morpholino-2-(4-phenylpiperazin-1-yl)pyrimidine], for which the melting point is 149 °C. For the same molecule, the EC50 in data set [1] was 18.4 µM.

`c1ccc2c(c1)CCN(c1nc(N3CCOCC3)cc(N3CCOCC3)n1)C2` [Compound 6, 4,6-dimorpholino-2-(1,2,3,4-tetrahydro-2H-isoquinolin-2-yl)pyrimidine]: in data set [1], the EC50 came to 8.24 µM.

Consider `Nc1c(N2CCOCC2)nc(N2CCOCC2)nc1N1CCC(Cc2ccccc2)CC1` [Compound 67, 5-amino-4-(4-benzylpiperidin-1-yl)-2,6-dimorpholinopyrimidine], for which, in data set [1], the EC50 was found to be 1.78 µM.

Regarding `CN(C)c1nc(N2CCC(Cc3ccccc3)CC2)nc(N2CCOCC2)c1N` [Compound 68, 5-amino-2-(4-benzylpiperidin-1-yl)-4-dimethylamino-6-morpholinopyrimidine], the EC50 in data set [1] worked out at 0.86 µM.

With `CC1CCc2cc(F)ccc2N1c1nc(N2CCOCC2)c(N)c(N2CCOCC2)n1` (centres unmarked) [Compound 71, 5-amino-2-(6-fluoro-2-methyl-1,2,3,4-tetrahydroquinolin-1-yl)-4,6-dimorpholinopyrimidine], the EC50 in data set [1] amounted to 1.96 µM.

On to `N#CC1(c2ccccc2)CCN(c2nc(N3CCOCC3)nc(N3CCOCC3)c2F)CC1` [Compound 115, 4-(4-cyano-4-phenylpiperidin-1-yl)-5-fluoro-2,6-dimorpholinopyrimidine], for which the EC50 in data set [1] turned out to be 0.63 µM.

In turn, `Fc1ccccc1N1CCN(c2nc(N3CCN(c4ccccc4)CC3)nc(N3CCOCC3)c2F)CC1` [Compound 125, 5-fluoro-4-[4-(2-fluorophenyl)piperazin-1-yl]-6-morpholino-2-(4-phenylpiperazin-1-yl)pyrimidine] registered a melting point of 140 to 141 °C. The EC50 in data set [1] came out at 0.56 µM.

Molecule `Fc1ccccc1N1CCN(c2nc(N3CCOCC3)c(F)c(N3CCN(c4ccccc4F)CC3)n2)CC1` [Compound 126, 2,4-bis[4-(2-fluorophenyl)piperazin-1-yl]-5-fluoro-6-morpholinopyrimidine] displayed a melting point of 131 to 132 °C. Further, the EC50 in data set [1] turned out to be 0.8 µM.

Molecule `Nc1c(N2CCOCC2)nc(/C=C/c2ccc(F)cc2)nc1N1CCOCC1` [Compound 135, 5-amino-2-[2-(4-fluorophenyl)vinyl]-4,6-dimorpholinopyrimidine] displayed a melting point of 193 to 195 °C.

Molecule `Cc1ccccc1/C=C/c1nc(N2CCOCC2)c(N)c(N2CCOCC2)n1` [Compound 137, 5-amino-2-[2-(2-methylphenyl)vinyl]-4,6-dimorpholinopyrimidine] gave a melting point of 151 to 154 °C.

The molecule `COc1ccc(/C=C/c2nc(N(C)C)c(N)c(N3CCOCC3)n2)cc1` [Compound 138, 5-amino-4-dimethylamino-2-[2-(4-methoxyphenyl)vinyl]-6-morpholinopyrimidine] returned a melting point of 130 to 133 °C.

`CN(C)c1c(N2CCOCC2)nc(N2CCN(c3ccccc3)CC2)nc1N1CCOCC1` [Compound 141, 5-dimethylamino-4,6-dimorpholino-2-(4-phenylpiperazin-1-yl)pyrimidine] gave a melting point of 208 to 210 °C.

With `O=Cc1c(N2CCOCC2)nc(N2CCN(c3ccccc3)CC2)nc1N1CCOCC1` [Compound 142, 5-formyl-4,6-dimorpholino-2-(4-phenylpiperazin-1-yl)pyrimidine], the melting point was 162 to 163 °C.

Regarding `CCN(CC)c1ccc(CCCCc2nc(N3CCOCC3)c(N)c(N3CCOCC3)n2)cc1` [Compound 145, 5-amino-2-[4-(4-diethylaminophenyl)butyl]-4,6-dimorpholinopyrimidine], the EC50 in data set [1] is 0.67 µM.

Take `CN1CCN(c2nc(N3CCCc4ccccc43)nc(N3CCOCC3)c2F)CC1` [Compound 167, 5-fluoro-4-(4-methylpiperazin-1-yl)-6-morpholino-2-(1,2,3,4-tetrahydro-1H-quinolin-1-yl)pyrimidine]: the EC50 in data set [1] stood at 0.28 µM.

As to `CN1CCN(c2nc(N3CCOCC3)nc(N3CCN(c4ccccc4)CC3)c2F)CC1` [Compound 171, 5-fluoro-4-(4-methylpiperazin-1-yl)-2-morpholino-6-(4-phenylpiperazin-1-yl)pyrimidine], the EC50 in data set [1] amounted to 0.49 µM.

In turn, `Cc1cccc(N2CCN(c3nc(N4CCN(C(=O)OC(C)(C)C)CC4)nc(N4CCOCC4)c3F)CC2)c1C` [Compound 177, 2-(4-tert-butoxycarbonylpiperazin-1-yl)-5-fluoro-4-morpholino-6-[4-(2,3-xylyl)piperazin-1-yl]pyrimidine] had a melting point of 81 to 82 °C.

As to `CC(C)(C)OC(=O)N1CCN(c2nc(N3CCN(c4ccccc4F)CC3)nc(N3CCOCC3)c2F)CC1` [Compound 181, 4-(4-tert-butoxycarbonylpiperazin-1-yl)-5-fluoro-2-[4-(2-fluorophenyl)piperazin-1-yl]-6-morpholinopyrimidine], the melting point is 137 to 138 °C.

As for `Fc1ccccc1N1CCN(c2nc(N3CCNCC3)c(F)c(N3CCOCC3)n2)CC1` [Compound 182, 5-fluoro-2-[4-(2-fluorophenyl)piperazin-1-yl]-4-morpholino-6-(1-piperazinyl)pyrimidine], the melting point lay in the range of 51 to 52 °C.

`Cc1cccc(N2CCN(c3nc(N4CCN(C)CC4)nc(N4CCOCC4)c3F)CC2)c1C` [Compound 183, 5-fluoro-2-(4-methylpiperazin-1-yl)-4-morpholino-6-[4-(2,3-xylyl)piperazin-1-yl]pyrimidine] had a melting point of 56 to 57 °C.

In the case of `Cc1cccc(N2CCN(c3nc(N4CCOCC4)c(F)c(N4CCN(C)CC4)n3)CC2)c1C` [Compound 184, 5-fluoro-4-(4-methylpiperazin-1-yl)-6-morpholino-2-[4-(2,3-xylyl)piperazin-1-yl]pyrimidine], the melting point fell in the range of 67 to 68 °C.

`CN1CCN(c2nc(N3CCN(c4ccccc4F)CC3)nc(N3CCOCC3)c2F)CC1` [Compound 185, 5-fluoro-2-[4-(2-fluorophenyl)piperazin-1-yl]-4-(4-methylpiperazin-1-yl)-6-morpholinopyrimidine] displayed a melting point of 128 to 129 °C.

The molecule `Cc1cccc(N2CCN(c3nc(N4CCOCC4)nc(N4CCN(C)CC4)c3F)CC2)c1C` [Compound 186, 5-fluoro-4-(4-methylpiperazin-1-yl)-2-morpholino-6-[4-(2,3-xylyl)piperazin-1-yl]-pyrimidine] returned a melting point of 67 to 68 °C.

The molecule `CC(C)(C)OC(=O)N1CCN(c2nc(N3CCN(c4ccccc4Cl)CC3)nc(N3CCOCC3)c2F)CC1` [Compound 188, 4-(4-tert-butoxycarbonylpiperazin-1-yl)-2-[4-(2-chlorophenyl)piperazin-1-yl]-5-fluoro-6-morpholinopyrimidine] yielded a melting point of 75 to 76 °C.

For `Fc1c(N2CCNCC2)nc(N2CCN(c3ccccc3Cl)CC2)nc1N1CCOCC1` [Compound 189, 2-[4-(2-chlorophenyl)piperazin-1-yl]-5-fluoro-4-morpholino-6-(1-piperazinyl)pyrimidine], the melting point was in the range of 70 to 71 °C.

Regarding `Cc1cccc(N2CCN(c3nc(N4CCN(Cc5ccncc5)CC4)nc(N4CCOCC4)c3F)CC2)c1C` [Compound 191, 5-fluoro-4-morpholino-2-[4-(4-pyridinylmethyl)piperazin-1-yl]-6-[4-(2,3-xylyl)piperazin-1-yl]-pyrimidine], the melting point was 127 to 128 °C. Also, the EC50 in data set [1] was determined as 0.73 µM.

Take `Cc1cccc(N2CCN(c3nc(N4CCN(Cc5ccc(NC(=O)OC(C)(C)C)cc5)CC4)nc(N4CCOCC4)c3F)CC2)c1C` [Compound 193, 2-[4-(4-tert-butoxycarbonylaminobenzyl)piperazin-1-yl]-5-fluoro-4-morpholino-6-[4-(2,3-xylyl)piperazin-1-yl]pyrimidine]: the melting point lay within 104 to 105 °C.

The molecule `Cc1cccc(N2CCN(c3nc(N4CCN(Cc5ccc(N)cc5)CC4)nc(N4CCOCC4)c3F)CC2)c1C` [Compound 194, 2-[4-(4-aminobenzyl)piperazin-1-yl]-5-fluoro-4-morpholino-6-[4-(2,3-xylyl)piperazin-1-yl]pyrimidine] returned a melting point of 77 to 78 °C.
